# Experimental data reported in patent publication US4487831A, “Process for the conversion of cellulose to glucose” (Research Corporation, priority 1982, dated 1984).
# Where two headings read alike, the source gives them in different places.
# Columns and labels:
# [1] = test system: purified cellobiase from Aspergillus terreus (ATCC 20514); assay: Km of purified cellobiase for cellobiose; type: biochemical; conditions: substrate cellobiose
# Protocol: The activity on cellobiose was determined by two different methods. In the first method 0.4 ml of the substrate, 12.5 mM cellobiose in 0.0625M sodium citrate buffer (pH 4.8), was preheated to 50° C., then 0.1 ml of the preheated enzyme solution was added to the substrate and the tubes stoppered. Each sample was incubated for 1.5 minutes placed in a boiling water bath for 30 seconds and then immediately cooled in an ice bath. This reaction mixture was added to 5 ml of the glucose oxidase reagent from a glucose assay kit (Sigma Chemical Co.) and the amount of glucose produced from cellobiose hydrolysis was determined spectrophometrically.
# In the second method the amount of glucose produced was measured on a high pressure liquid chromatograph. The cellobiose substrate consisted of 0.03M cellobiose in 0.075M sodium citrate buffer (pH 4.8). The substrate and enzyme solution was preheated to 50° C., then 0.25 ml of the enzyme solution was added to 0.5 ml of the substrate and incubated for 10 minutes. […]
# Using cellobiose as the substrate, the purified cellobiase enzyme from Aspergillus terreus was capable of producing 215 micromoles of glucose from cellobiose per minute per milligram of enzyme protein. […] The specific activity of our purified cellobiase is expressed as 215 units per mg protein. […]
# [2] = test system: cellobiase from Aspergillus phoenicis; conditions: Table 3; substrate cellobiose; as reported in the literature; cited from earlier work
# [3] = test system: cellobiase from Trichoderma reesei; conditions: Table 3; substrate cellobiose; as reported in the literature; cited from earlier work
# [4] = target: purified cellobiase from Aspergillus terreus (ATCC 20514); assay: Glucose inhibition of purified cellobiase, PNPG as substrate; type: biochemical
# Protocol: The β-glucosidase activity was routinely determined using p-nitrophenyl-β-D-glucoside (PNPG) as the substrate. Two milliliters of a 10 mM PNPG solution in 0.05M sodium citrate buffer solution (pH 4.8) were heated to 50° C. Then […] of the enzyme solution was added to the substrate and incubated for 15 minutes. After incubation, 3 ml of 1.0M aqueous sodium carbonate solution were added to stop the reaction and develop the color. The absorbance was read at 400 nm and the amount of p-nitrophenol liberated was determined from a standard curve. The time of incubation varied depending on the activity of the enzyme preparation tested. A unit (IU) of activity was defined as the amount of enzyme required to liberate one micromole of p-nitrophenol per minute from the substrate.
# Glucose is a competitive inhibitor of the cellobiase enzyme from Aspergillus terreus. […] The Ki is the concentration of inhibitor required to slow the reaction down to one-half its maximum velocity, therefore, the larger the Ki the less inhibitory the inhibitor is.
# [5] = target: T1, cellobiase from Alcaligenes faecalis (Agrobacterium sp., UniProt P12614); conditions: read-out: Ki (molar); Table 4; inhibitor glucose; type of inhibition competitive; reference (1) Ivanova et al 1980; cited from earlier work
# T1 sequence (P12614 1-459): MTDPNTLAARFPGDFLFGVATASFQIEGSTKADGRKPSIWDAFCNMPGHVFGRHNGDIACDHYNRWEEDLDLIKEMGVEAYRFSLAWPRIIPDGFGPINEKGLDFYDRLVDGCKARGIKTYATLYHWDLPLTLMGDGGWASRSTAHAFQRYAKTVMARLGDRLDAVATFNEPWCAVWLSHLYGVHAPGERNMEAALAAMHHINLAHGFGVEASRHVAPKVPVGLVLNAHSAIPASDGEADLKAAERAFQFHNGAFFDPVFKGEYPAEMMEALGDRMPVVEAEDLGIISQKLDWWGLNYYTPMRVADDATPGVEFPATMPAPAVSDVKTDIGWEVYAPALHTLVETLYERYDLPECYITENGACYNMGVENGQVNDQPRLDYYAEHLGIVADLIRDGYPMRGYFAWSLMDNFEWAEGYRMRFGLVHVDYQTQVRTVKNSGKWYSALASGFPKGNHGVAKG
# [6] = target: cellobiase from Lenzites trabes; conditions: Table 4; inhibitor glucose; type of inhibition noncompetitive; reference (2) Herr et al 1978; cited from earlier work
# [7] = target: cellobiase from Phanerochaete chrysosporium; conditions: Table 4; inhibitor glucose; type of inhibition competitive; reference (3) Smith and Gold 1979; cited from earlier work
"Km ([1]; Table 3, read-out: Km) [µM]","Km ([1]; purified enzyme, pH 4.8, 50° C., read-out: affinity (Km) for cellobiose) [µM]",SMILES,Km [2] [µM],Km [3] [µM],"Ki ([4]; Table 4, inhibitor glucose, type of inhibition competitive, read-out: Ki) [mM]","Ki ([4]; competitive inhibitor, p-nitrophenyl-β-D-glucoside as substrate, read-out: Ki dissociation constant for glucose) [mM]",Ki [5] [mM],Ki [6] [mM],Ki [7] [mM]
400,400,OC[C@H]1O[C@@H](O[C@H]2[C@H](O)[C@@H](O)C(O)O[C@@H]2CO)[C@H](O)[C@@H](O)[C@@H]1O (stereo partly drawn) [cellobiose],750,3300,,,,,
,,OC[C@H]1OC(O)[C@H](O)[C@@H](O)[C@@H]1O (stereo partly drawn) [glucose],,,3.5,3.5,3,2.7,0.5
